Test results published in paper PMC5147771, “High-Resolution Genetics Identifies the Lipid Transfer Protein Sec14p as Target for Antifungal Ergolines” (PLoS Genetics, 2016).
Entries after “also recorded” stand apart in the source; their conditions may differ. Where two headings read alike, the source gives them in different places.

How the values were obtained:
C. neoformans ATCC 36556 = experiment: C. neoformans growth inhibition (CLSI M27-A3 broth microdilution); assay type: cell-based; settings: for MIC: Cryptococcus neoformans, ATCC36556, 72 h; for C. neoformans growth inhibition (in words): clinical isolates ATCC 36556 and ATCC 90113, tested dose range
From the text: (§1) Sec14p is reported to be essential for virulence as well as for growth in C. neoformans. The S. cerevisiae and C. neoformans proteins show 53% similarity by pair-wise alignment with higher conservation of the residues in the lipid-binding pocket (S2 Fig). Furthermore, three of the four sites identified to be critical for NGx04 sensitivity, are conserved (S2 Fig). In combination with the current high unmet medical need related to Cryptococcus infections we prioritized testing of NGx04 and 18 related ergoline scaffold analogs against this pathogen. Two clinical isolates of C. neoformans (ATCC 36556 and ATCC 90113) were plated in triplicates on increasing drug concentrations and MIC-2 (50% inhibition) and MIC-0 (no visible fungal growth) concentrations were scored after 72 hrs. (Fig 5).
(§2) C. neoformans strains ATCC 36556, a lung isolate, and ATCC 90113, a cerebrospinal fluid isolate, were purchased from ATCC, Manassas, VA (USA). BPY22 was obtained from.
(§3) Antifungal susceptibility testing was conducted according to the Clinical and Laboratory Standards Institute (CLSI) guidelines for broth microdilution assay M27-A3. Testing was performed in RPMI-1640 (HyClone) with 2.05 mM glutamine, phenol red, without bicarbonate and buffered with 0.165 mol/l 3-(N-morpholino) propanesulfonic acid (MOPS). The medium was adjusted to pH 7.0 and sterilized with a 0.2 μm filter. Two endpoints were recorded: MIC-0 (complete inhibition with no visible fungal growth) and MIC-2 (prominent inhibition corresponding to >50% growth reduction).

C. neoformans ATCC 90113 = experiment: as above; assay type: cell-based; settings: for MIC: Cryptococcus neoformans, ATCC90113, 72 h
From the text: as §1, §2, §3

[1] = 50% inhibition, 72 h, triplicate values printed singly
[2] = 50% inhibition, 72 h, triplicate values printed singly, read-out: ATCC36556 MIC-2
[3] = no visible fungal growth, 72 h, triplicate values printed singly, read-out: ATCC36556 MIC-0
[4] = no visible fungal growth, 72 h, triplicate values printed singly
[5] = 50% inhibition, 72 h, triplicate values printed singly, read-out: ATCC90113 MIC-2
[6] = no visible fungal growth, 72 h, triplicate values printed singly, read-out: ATCC90113 MIC-0

Row | SMILES | ATCC36556 MIC-2 (C. neoformans ATCC 36556; [1]) [µg/mL] | MIC (C. neoformans ATCC 36556; [2]) [µg/mL] | MIC (C. neoformans ATCC 36556; [3]) [µg/mL] | MIC (C. neoformans ATCC 90113; [5]) [µg/mL] | MIC (C. neoformans ATCC 90113; [6]) [µg/mL] | ATCC36556 MIC-0 (C. neoformans ATCC 36556; [4]) [µg/mL] | MIC (C. neoformans ATCC 36556; read-out: ATCC36556 MIC-0) [µg/mL] | MIC (C. neoformans ATCC 36556; read-out: ATCC36556 MIC-2) [µg/mL] | MIC (C. neoformans ATCC 90113; read-out: ATCC90113 MIC-0) [µg/mL] | MIC (C. neoformans ATCC 90113; read-out: ATCC90113 MIC-2) [µg/mL] | C. neoformans growth inhibition (in words) (C. neoformans ATCC 36556) | ATCC90113 MIC-0 (C. neoformans ATCC 90113; [4]) [µg/mL] | ATCC90113 MIC-2 (C. neoformans ATCC 90113; [1]) [µg/mL]
1 | C[C@@H]1[C@H](O)[C@@H](C)/C=C/C=C/C=C/C=C/C=C/C=C/C=C/[C@H](O[C@@H]2O[C@H](C)[C@@H](O)[C@H](N)[C@@H]2O)C[C@@H]2O[C@](O)(C[C@@H](O)C[C@@H](O)[C@H](O)CC[C@@H](O)C[C@@H](O)CC(=O)O[C@H]1C)C[C@H](O)[C@H]2C(=O)O [Amphotericin B, reference compound] | 0.1 | 0.2 | 0.2 | 0.8 | 1.6 | 0.4 |  |  |  |  |  |  | 
2 | CN1C[C@H](C(=O)O)C[C@@H]2c3cccc4c3[C@H](C[C@H]21)CN4C(=O)OC(C)(C)C [NGx01] |  |  |  |  |  |  | > 50 | > 50 | > 50 | > 50 |  |  | 
3 | CN1C[C@H](C(=O)Nc2cccc(C(F)(F)F)c2)C[C@@H]2c3cccc4c3[C@H](C[C@H]21)CN4C(=O)OC(C)(C)C [NGx03] | 3.1 | 3.13 | 6.25 | > 50 | > 50 | 6.3 |  |  |  |  | inhibit C. neoformans growth; also recorded: scored anti-fungal activity |  | 
4 | COC(=O)[C@@H]1C[C@@H]2c3cc([N+](=O)[O-])cc4c3[C@@H](CN4)C[C@H]2N(C)C1 [NGx14] |  | 50 | > 50 | > 50 | > 50 |  |  |  |  |  |  |  | 
5 | COC(=O)C1CC2c3cccc4c3C(CC2N(C(C)C)C1)CN4C(=O)OC(C)(C)C (centres unmarked) [NGx15] |  | > 50 | > 50 | > 50 | > 50 |  |  |  |  |  |  |  | 
6 | COC(=O)[C@@H]1C[C@@H]2c3cccc4c3[C@H](C[C@H]2N(C)C1)CN4C(=O)OCC(Cl)(Cl)Cl [NGx16] |  | 13 | 50 | 13 | 50 | > 50 |  |  |  |  | inhibit C. neoformans growth | > 50 | 
7 | COC(=O)[C@@H]1C[C@@H]2c3c([N+](=O)[O-])ccc4c3[C@H](C[C@H]2N(C)C1)CN4C(=O)OCC(Cl)(Cl)Cl [NGx19] | 13 | 12.5 | 50 | 6.25 | > 50 | 25 |  |  |  |  | inhibit C. neoformans growth |  | 6.3

The next lines start with results.

Row | ATCC36556 MIC-2 (C. neoformans ATCC 36556; [1]) [µg/mL] | MIC (C. neoformans ATCC 36556; [2]) [µg/mL] | MIC (C. neoformans ATCC 36556; [3]) [µg/mL] | MIC (C. neoformans ATCC 90113; [5]) [µg/mL] | MIC (C. neoformans ATCC 90113; [6]) [µg/mL] | SMILES | ATCC36556 MIC-0 (C. neoformans ATCC 36556; [4]) [µg/mL] | MIC (C. neoformans ATCC 36556; read-out: ATCC36556 MIC-0) [µg/mL] | MIC (C. neoformans ATCC 36556; read-out: ATCC36556 MIC-2) [µg/mL] | MIC (C. neoformans ATCC 90113; read-out: ATCC90113 MIC-0) [µg/mL] | MIC (C. neoformans ATCC 90113; read-out: ATCC90113 MIC-2) [µg/mL] | C. neoformans growth inhibition (in words) (C. neoformans ATCC 36556) | ATCC90113 MIC-0 (C. neoformans ATCC 90113; [4]) [µg/mL] | ATCC90113 MIC-2 (C. neoformans ATCC 90113; [1]) [µg/mL]
8 |  | > 50 | > 50 | > 50 | > 50 | COC(=O)[C@@H]1C[C@@H]2c3cc(O)cc4c3[C@H](C[C@H]2N(C)C1)CN4C(C)=O [NGx02] |  |  |  |  |  |  |  | 
9 |  | 50 | > 50 | > 50 | > 50 | COC(=O)[C@@H]1C[C@@H]2c3cc(F)cc4c3[C@H](C[C@H]2N(C)C1)CN4C(C)=O [NGx06] |  |  |  |  |  |  |  | 
10 |  | 6.3 | > 50 | 13 | > 50 | CN1C[C@H](C(=O)Nc2ccccc2)C[C@@H]2c3c(O)ccc4c3[C@H](C[C@H]21)CN4C(=O)OC(C)(C)C [NGx07] |  |  |  |  |  | inhibit C. neoformans growth; also recorded: scored anti-fungal activity |  | 
11 | 25 | 50 | > 50 | > 50 | > 50 | COC(=O)[C@@H]1C[C@@H]2c3cc(OCc4ccccc4)cc4c3[C@H](C[C@H]2N(C)C1)CN4C(C)=O [NGx08] |  |  |  |  |  |  |  | 
12 |  |  | > 50 |  | > 50 | COC(=O)[C@@H]1C[C@@H]2c3cc([N+](=O)[O-])cc4c3[C@H](C[C@H]2N(C)C1)CN4C(=O)OCC(Cl)(Cl)Cl [NGx09] |  |  |  |  |  | inhibit C. neoformans growth |  | 
13 |  | 25 | > 50 | > 50 | > 50 | COC(=O)[C@@H]1C[C@@H]2c3cc(N)cc4c3[C@H](C[C@H]2N(C)C1)CN4C(C)=O [NGx10] |  |  |  |  |  |  |  | 
14 |  | 25 | > 50 | > 50 | > 50 | COC(=O)[C@@H]1C[C@@H]2c3cc([N+](=O)[O-])cc4c3[C@H](C[C@H]2N(C)C1)CN4C(C)=O [NGx11] |  |  |  |  |  |  |  | 
15 | 50 | 25 | > 50 | > 50 | > 50 | COC(=O)C1CC2c3cc(O)cc4c3C(CC2N(C)C1)CN4C(C)=O (centres unmarked) [NGx12] |  |  |  |  |  |  |  | 
16 | > 50 | 50 | > 50 | > 50 | > 50 | COC(=O)C1CC2c3cccc4c3C(CC2N(C)C1)CN4C=O (centres unmarked) [NGx17] |  |  |  |  |  |  |  | 
17 |  | > 50 | > 50 | > 50 | > 50 | CN1CC(C(=O)O)CC2c3cccc4c3C(CC21)CN4C(=O)OCc1ccccc1 (centres unmarked) [NGx18] |  |  |  |  |  |  |  | 
